Experimental data reported in article PMC4620497 (Scientific Reports, 2015).
Like-named read-outs stand apart in the source and are kept apart here.

Tests used:
ERBB2 = ERBB2 (Homo sapiens, UniProt P04626); set-up: method as in earlier work; details: Table S1; cited from earlier work
CDK2 = CDK2 (Homo sapiens, UniProt P24941); set-up: method as in earlier work; details: Table S1; cited from earlier work
FLT3-autoinhibited = target: T1, FLT3-autoinhibited (Homo sapiens, UniProt P36888); assay: KINOMEscan panel screen; assay type: binding; details: read-out: Percent Control(%)
T1 construct: purchased DiscoveRx KINOMEscan (Ambit Biosciences)

TAOK1 = target: T2, TAOK1 (Homo sapiens, UniProt Q7L7X3); assay: KINOMEscan panel screen; assay type: binding; details: read-out: Percent Control(%)
T2 construct: purchased DiscoveRx KINOMEscan (Ambit Biosciences)

[1] = Pharmacokinetic assessment in rats; assay type: in vivo, SD rats; details: rat, mean; for Tmax / half-life / AUC(0-t) / Cmax / t1/2: 10 mg/kg; for AUC(0-t): read-out: AUC(0-36h)
Description: Preliminary pharmacokinetic characteristics of SKLB-677 were assessed on rats with SKLB-677 at a dose of 10 mg/kg P.O. and I.V. administration. The key pharmacokinetic parameters calculated are summarized in Supplementary Table S6.
SD rats (6 per group) were orally treated or injected intravenously with 10 mg/kg SKLB-677, followed by the collection of blood from the jugular vein into heparinized tubes at the appropriate times. The plasma was isolated by centrifugation. The plasma concentrations of SKLB-677 were determined using liquid–liquid extraction followed by high-performance liquid chromatography (HPLC) with tandem mass spectrometric detection. Noncompartmental pharmacokinetic parameters (AUC, Tmax, Cmax, and t1⁄2) were obtained from the blood concentration time profiles using DAS software.
Supplementary Table S6. The pharmacokinetic characteristics of SKLB-677. […]
standard deviation. t1/2: Mean half-life associat ed with the terminal slope and standard deviation.C max: Mean peak plasma concentration and standard deviation.
Tmax: Mean time to reach max imum plasma concentration and standard dev iation. CL:
Mean bod y clearance and standard deviation. Vss: Mean volume of distribution at steady state and standard deviation. The statistical anal ysis of data was shown as mean values and SD v alues (n= 6) .

PIM1 = target: T3, PIM1 (Homo sapiens, UniProt P11309); assay: KINOMEscan panel screen; assay type: binding; details: read-out: Percent Control(%)
T3 construct: purchased DiscoveRx KINOMEscan (Ambit Biosciences)

DYRK1B = target: T4, DYRK1B (Homo sapiens, UniProt Q9Y463); assay: KINOMEscan panel screen; assay type: binding; details: read-out: Percent Control(%)
T4 construct: purchased DiscoveRx KINOMEscan (Ambit Biosciences)

STK39 = target: T5, STK39 (Homo sapiens, UniProt Q9UEW8); assay: KINOMEscan panel screen; assay type: binding; details: read-out: Percent Control(%)
T5 construct: purchased DiscoveRx KINOMEscan (Ambit Biosciences)

SGK3 = target: T6, SGK3 (Homo sapiens, UniProt Q96BR1); assay: KINOMEscan panel screen; assay type: binding; details: read-out: Percent Control(%)
T6 construct: purchased DiscoveRx KINOMEscan (Ambit Biosciences)

zebrafish embryos = assay: Zebrafish development experiment (posterior axis formation); assay type: in vivo; details: added at 4hpf, observed after 24hpf
PKAC-beta = target: T7, PKAC-beta (Homo sapiens, UniProt P22694); assay: KINOMEscan panel screen; assay type: binding; details: read-out: Percent Control(%)
T7 construct: purchased DiscoveRx KINOMEscan (Ambit Biosciences)

DCAMKL2 = target: T8, DCAMKL2 (Homo sapiens, UniProt Q8N568); assay: KINOMEscan panel screen; assay type: binding; details: read-out: Percent Control(%)
T8 construct: purchased DiscoveRx KINOMEscan (Ambit Biosciences)

CSNK1D = target: T9, CSNK1D (Homo sapiens, UniProt P48730); assay: KINOMEscan panel screen; assay type: binding; details: read-out: Percent Control(%)
T9 construct: purchased DiscoveRx KINOMEscan (Ambit Biosciences)

SgK110 = target: T10, SgK110 (Homo sapiens, UniProt P0C264); assay: KINOMEscan panel screen; assay type: binding; details: read-out: Percent Control(%)
T10 construct: purchased DiscoveRx KINOMEscan (Ambit Biosciences)

KIT = target: T11, KIT (Homo sapiens, UniProt P10721); assay: KINOMEscan panel screen; assay type: binding; details: read-out: Percent Control(%)
T11 construct: DNA tag (qPCR read-out); purchased Ambit Biosciences (KINOMEscan service)

PKMYT1 = target: T12, PKMYT1 (Homo sapiens, UniProt Q99640); assay: KINOMEscan panel screen; assay type: binding; details: read-out: Percent Control(%)
T12 construct: purchased DiscoveRx KINOMEscan (Ambit Biosciences)

MAP3K2 = target: T13, MAP3K2 (Homo sapiens, UniProt Q9Y2U5); assay: KINOMEscan panel screen; assay type: binding; details: read-out: Percent Control(%)
T13 construct: purchased DiscoveRx KINOMEscan (Ambit Biosciences)

EPHA1 = target: T14, EPHA1 (Homo sapiens, UniProt P21709); assay: KINOMEscan panel screen; assay type: binding; details: read-out: Percent Control(%)
T14 construct: purchased DiscoveRx KINOMEscan (Ambit Biosciences)

MET(M1250T) = target: T15, MET(M1250T) (Homo sapiens, UniProt P08581, M1250T); assay: KINOMEscan panel screen; assay type: binding; details: read-out: Percent Control(%)
T15 construct: purchased DiscoveRx KINOMEscan (Ambit Biosciences)

[2] = target: T16, JAK3(JH1domain-catalytic) (Homo sapiens, UniProt P52333); assay: KINOMEscan panel screen; assay type: binding; details: read-out: Percent Control(%)
T16 construct: JAK3(JH1domain-catalytic); purchased DiscoveRx KINOMEscan (Ambit Biosciences)

CAMK2G = target: T17, CAMK2G (Homo sapiens, UniProt Q13555); assay: KINOMEscan panel screen; assay type: binding; details: read-out: Percent Control(%)
T17 construct: purchased DiscoveRx KINOMEscan (Ambit Biosciences)

STK16 = target: T18, STK16 (Homo sapiens, UniProt O75716); assay: KINOMEscan panel screen; assay type: binding; details: read-out: Percent Control(%)
T18 construct: purchased DiscoveRx KINOMEscan (Ambit Biosciences)

[3] = target: T19, ABL1(F317L)-phosphorylated (Homo sapiens, UniProt P00519, F317L); assay: KINOMEscan panel screen; assay type: binding; details: read-out: Percent Control(%)
T19 construct: purchased DiscoveRx KINOMEscan (Ambit Biosciences)

[4] = target: T20, ABL1(F317L)-nonphosphorylated (Homo sapiens, UniProt P00519, F317L); assay: KINOMEscan panel screen; assay type: binding; details: read-out: Percent Control(%)
T20 construct: purchased DiscoveRx KINOMEscan (Ambit Biosciences)

ERK4 = target: T21, ERK4 (Homo sapiens, UniProt P31152); assay: KINOMEscan panel screen; assay type: binding; details: read-out: Percent Control(%)
T21 construct: purchased DiscoveRx KINOMEscan (Ambit Biosciences)

PAK6 = target: T22, PAK6 (Homo sapiens, UniProt Q9NQU5); assay: KINOMEscan panel screen; assay type: binding; details: read-out: Percent Control(%)
T22 construct: purchased DiscoveRx KINOMEscan (Ambit Biosciences)

PAK3 = target: T23, PAK3 (Homo sapiens, UniProt O75914); assay: KINOMEscan panel screen; assay type: binding; details: read-out: Percent Control(%)
T23 construct: purchased DiscoveRx KINOMEscan (Ambit Biosciences)

LOK = LOK (Homo sapiens, UniProt O94804); assay: KINOMEscan panel screen; assay type: binding; details: read-out: Percent Control(%)
EGFR(G719C) = target: T24, EGFR(G719C) (Homo sapiens, UniProt P00533, G719C); assay: KINOMEscan panel screen; assay type: binding; details: read-out: Percent Control(%)
T24 construct: purchased DiscoveRx KINOMEscan (Ambit Biosciences)

PAK1 = PAK1 (Homo sapiens, UniProt Q13153); assay: KINOMEscan panel screen; assay type: binding; details: read-out: Percent Control(%)
FLT3-D835H = FLT3-D835H (Homo sapiens, UniProt P36888, D835H); assay: KINOMEscan kinase binding assay (Kd); set-up: purchased Ambit Biosciences (KINOMEscan)

T13 sequence (Q9Y2U5 whole entry): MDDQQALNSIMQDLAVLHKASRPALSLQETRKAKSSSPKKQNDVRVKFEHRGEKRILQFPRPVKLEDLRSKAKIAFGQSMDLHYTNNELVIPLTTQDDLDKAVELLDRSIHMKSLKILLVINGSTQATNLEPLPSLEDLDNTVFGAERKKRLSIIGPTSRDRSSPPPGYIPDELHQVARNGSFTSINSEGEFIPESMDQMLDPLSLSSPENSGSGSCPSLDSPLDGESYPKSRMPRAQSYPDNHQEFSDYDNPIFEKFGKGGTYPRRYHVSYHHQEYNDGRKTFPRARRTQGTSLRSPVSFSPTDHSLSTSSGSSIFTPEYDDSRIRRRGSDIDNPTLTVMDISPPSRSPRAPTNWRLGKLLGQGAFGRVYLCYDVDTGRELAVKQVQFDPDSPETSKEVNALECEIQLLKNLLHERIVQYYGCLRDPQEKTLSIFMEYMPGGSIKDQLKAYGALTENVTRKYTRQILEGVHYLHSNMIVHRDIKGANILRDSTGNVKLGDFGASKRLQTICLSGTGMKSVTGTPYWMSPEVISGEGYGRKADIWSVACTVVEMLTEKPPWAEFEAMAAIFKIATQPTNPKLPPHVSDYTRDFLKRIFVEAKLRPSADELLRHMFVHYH
T21 sequence (P31152 whole entry): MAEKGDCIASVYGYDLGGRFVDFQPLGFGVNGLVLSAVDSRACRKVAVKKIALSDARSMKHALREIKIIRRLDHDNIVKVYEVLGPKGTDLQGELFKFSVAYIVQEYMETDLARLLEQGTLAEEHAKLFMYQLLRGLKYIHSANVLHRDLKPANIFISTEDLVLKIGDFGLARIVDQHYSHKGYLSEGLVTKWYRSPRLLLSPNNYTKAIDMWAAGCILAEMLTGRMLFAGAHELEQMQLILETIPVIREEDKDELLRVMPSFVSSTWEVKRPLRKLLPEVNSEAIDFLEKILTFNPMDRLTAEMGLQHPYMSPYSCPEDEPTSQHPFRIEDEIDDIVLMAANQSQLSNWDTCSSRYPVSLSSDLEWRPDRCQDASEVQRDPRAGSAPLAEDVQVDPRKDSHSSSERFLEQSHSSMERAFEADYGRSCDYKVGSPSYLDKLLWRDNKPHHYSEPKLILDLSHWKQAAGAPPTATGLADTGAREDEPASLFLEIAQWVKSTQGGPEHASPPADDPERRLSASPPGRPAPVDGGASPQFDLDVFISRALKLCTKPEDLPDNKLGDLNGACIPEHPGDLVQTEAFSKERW
T23 sequence (O75914 whole entry): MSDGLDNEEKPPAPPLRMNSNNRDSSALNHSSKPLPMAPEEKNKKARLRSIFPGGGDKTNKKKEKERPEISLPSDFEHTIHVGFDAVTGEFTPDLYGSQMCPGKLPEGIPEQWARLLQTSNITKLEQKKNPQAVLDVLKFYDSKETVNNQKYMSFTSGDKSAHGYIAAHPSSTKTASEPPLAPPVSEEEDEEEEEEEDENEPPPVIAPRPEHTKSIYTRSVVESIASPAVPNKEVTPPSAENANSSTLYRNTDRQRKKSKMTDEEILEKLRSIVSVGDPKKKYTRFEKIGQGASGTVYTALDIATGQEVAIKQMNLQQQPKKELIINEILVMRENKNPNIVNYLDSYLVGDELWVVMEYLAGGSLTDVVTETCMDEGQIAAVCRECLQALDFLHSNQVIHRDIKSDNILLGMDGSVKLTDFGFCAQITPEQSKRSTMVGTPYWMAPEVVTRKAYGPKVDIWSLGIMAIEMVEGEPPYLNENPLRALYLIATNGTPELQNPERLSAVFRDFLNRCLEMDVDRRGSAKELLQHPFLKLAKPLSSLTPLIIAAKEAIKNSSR
T19 sequence (P00519 whole entry F317L): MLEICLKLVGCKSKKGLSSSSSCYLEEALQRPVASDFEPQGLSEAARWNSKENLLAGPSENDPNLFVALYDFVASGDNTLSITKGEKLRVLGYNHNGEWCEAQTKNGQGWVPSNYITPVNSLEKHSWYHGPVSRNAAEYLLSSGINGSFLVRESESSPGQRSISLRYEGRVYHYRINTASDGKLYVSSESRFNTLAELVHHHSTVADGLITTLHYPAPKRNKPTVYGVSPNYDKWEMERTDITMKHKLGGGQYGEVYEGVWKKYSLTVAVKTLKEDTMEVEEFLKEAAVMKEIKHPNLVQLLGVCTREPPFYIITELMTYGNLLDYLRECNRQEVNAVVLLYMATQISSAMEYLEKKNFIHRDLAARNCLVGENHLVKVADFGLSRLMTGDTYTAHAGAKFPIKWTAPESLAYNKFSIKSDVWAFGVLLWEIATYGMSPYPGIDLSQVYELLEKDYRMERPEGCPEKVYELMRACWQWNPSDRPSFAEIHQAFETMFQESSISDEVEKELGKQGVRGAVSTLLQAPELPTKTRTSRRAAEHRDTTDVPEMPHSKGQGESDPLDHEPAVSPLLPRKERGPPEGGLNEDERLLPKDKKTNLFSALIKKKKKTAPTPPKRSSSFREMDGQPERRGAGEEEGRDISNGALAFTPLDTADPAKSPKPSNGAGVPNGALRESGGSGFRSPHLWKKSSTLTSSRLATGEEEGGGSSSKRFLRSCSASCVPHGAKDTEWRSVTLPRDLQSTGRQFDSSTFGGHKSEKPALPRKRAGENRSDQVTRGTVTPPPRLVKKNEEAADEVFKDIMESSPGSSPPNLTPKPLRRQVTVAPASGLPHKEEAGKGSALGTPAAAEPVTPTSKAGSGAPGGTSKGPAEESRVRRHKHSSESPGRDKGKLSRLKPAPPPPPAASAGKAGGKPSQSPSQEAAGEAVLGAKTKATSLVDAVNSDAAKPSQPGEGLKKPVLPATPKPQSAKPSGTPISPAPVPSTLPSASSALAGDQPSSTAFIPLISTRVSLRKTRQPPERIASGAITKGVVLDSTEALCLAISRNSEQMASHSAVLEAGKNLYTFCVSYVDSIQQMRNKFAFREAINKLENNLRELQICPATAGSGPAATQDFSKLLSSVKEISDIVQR
T14 sequence (P21709 26-976): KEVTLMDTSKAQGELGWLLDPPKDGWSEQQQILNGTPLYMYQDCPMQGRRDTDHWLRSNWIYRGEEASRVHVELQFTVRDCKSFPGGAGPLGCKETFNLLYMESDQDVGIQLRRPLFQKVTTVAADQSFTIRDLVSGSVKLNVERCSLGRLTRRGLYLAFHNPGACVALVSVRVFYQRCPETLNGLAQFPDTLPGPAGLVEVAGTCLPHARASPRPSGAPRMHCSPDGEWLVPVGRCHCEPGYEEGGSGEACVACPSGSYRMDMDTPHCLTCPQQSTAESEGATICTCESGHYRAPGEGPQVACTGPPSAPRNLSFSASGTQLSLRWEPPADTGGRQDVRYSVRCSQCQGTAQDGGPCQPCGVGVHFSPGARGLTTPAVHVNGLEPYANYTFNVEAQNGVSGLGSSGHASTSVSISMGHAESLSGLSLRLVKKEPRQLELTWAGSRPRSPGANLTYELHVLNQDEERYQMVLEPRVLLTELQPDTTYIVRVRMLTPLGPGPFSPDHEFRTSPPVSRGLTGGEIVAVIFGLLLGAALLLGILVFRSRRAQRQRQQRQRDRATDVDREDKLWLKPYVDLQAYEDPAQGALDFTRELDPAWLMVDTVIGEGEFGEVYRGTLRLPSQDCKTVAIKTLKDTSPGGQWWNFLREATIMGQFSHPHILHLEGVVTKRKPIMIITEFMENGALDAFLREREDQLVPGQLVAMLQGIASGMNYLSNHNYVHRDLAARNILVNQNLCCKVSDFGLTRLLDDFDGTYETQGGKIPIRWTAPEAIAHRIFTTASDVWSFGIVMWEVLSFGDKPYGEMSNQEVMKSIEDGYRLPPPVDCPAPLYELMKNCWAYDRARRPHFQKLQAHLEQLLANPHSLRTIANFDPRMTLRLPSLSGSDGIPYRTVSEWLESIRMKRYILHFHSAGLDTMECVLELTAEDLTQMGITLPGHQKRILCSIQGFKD
ERBB2, sequence (P04626 23-1255): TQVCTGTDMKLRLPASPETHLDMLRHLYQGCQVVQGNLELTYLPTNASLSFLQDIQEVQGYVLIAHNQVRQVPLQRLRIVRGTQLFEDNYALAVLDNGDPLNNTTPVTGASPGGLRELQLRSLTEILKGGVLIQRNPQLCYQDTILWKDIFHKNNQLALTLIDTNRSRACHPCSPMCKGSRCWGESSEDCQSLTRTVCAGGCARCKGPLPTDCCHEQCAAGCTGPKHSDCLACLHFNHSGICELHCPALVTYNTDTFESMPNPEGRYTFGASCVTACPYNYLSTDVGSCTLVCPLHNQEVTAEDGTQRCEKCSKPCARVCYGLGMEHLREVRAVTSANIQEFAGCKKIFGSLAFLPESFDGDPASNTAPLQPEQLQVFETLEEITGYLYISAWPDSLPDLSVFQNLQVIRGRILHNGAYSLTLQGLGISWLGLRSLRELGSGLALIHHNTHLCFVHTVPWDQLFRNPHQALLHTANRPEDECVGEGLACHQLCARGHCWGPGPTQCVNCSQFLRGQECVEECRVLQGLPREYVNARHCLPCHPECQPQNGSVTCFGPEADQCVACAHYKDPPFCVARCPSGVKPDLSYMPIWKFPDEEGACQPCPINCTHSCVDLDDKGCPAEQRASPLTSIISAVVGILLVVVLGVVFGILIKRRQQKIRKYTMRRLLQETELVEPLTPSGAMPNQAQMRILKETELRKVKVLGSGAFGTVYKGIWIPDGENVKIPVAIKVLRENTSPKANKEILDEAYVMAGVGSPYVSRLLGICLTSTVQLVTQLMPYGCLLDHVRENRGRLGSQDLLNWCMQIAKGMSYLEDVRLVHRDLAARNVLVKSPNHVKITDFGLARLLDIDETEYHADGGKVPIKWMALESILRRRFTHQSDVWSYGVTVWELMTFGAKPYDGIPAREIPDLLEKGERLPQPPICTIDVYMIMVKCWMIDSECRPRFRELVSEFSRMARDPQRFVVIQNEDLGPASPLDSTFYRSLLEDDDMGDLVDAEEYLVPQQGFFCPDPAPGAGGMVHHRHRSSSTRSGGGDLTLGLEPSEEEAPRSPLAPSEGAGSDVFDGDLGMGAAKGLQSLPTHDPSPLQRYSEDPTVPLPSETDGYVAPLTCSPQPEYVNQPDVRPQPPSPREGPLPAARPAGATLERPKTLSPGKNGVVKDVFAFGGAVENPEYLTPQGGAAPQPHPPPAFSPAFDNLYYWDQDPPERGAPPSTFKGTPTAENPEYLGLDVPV

For `O=C(Nc1ccc(Oc2ncnc3[nH]ncc23)cc1)Nc1ccc(Cl)c(C(F)(F)F)c1` [Compound 1, 1-(4-(1H-pyrazolo[3,4-d]pyrimidin-4-yloxy)phenyl)-3-(4-chloro-3-(trifluoromethyl)phenyl)urea], the IC50 (ERBB2) is listed as > 10 µM and the IC50 (CDK2) is listed as > 10 µM.
`CC(C)(C)c1cc(NC(=O)Nc2ccc(Oc3ncnc4[nH]ncc34)c(F)c2)no1` [SKLB-677, 1-(4-(1H-pyrazolo[3,4-d]pyrimidin-4-yloxy)-3-fluorophenyl)-3-(5-tert-butylisoxazol-3-yl)urea] showed a remaining binding at 10 µM (FLT3-autoinhibited) of 1.2%, a remaining binding at 10 µM (TAOK1) of 3.2% and a clearance ([1]; SD, plasma, iv, 10 mg/kg I.V.) of 0.617 mL/min/kg. The Vd ([1]; SD, plasma, iv, 10 mg/kg I.V., read-out: Vss (apparent volume of distribution, Vd)) was 0.271 L/kg, the Tmax ([1]; SD, plasma, iv, 10 mg/kg I.V.) was 0.033 h and the half-life ([1]; SD, plasma, iv, 10 mg/kg I.V.) was 5.09 h. For the same compound, the AUC(0-t) ([1]; SD, plasma, iv, 10 mg/kg I.V.) was 272 µg·h/mL, the Cmax ([1]; SD, plasma, iv, 10 mg/kg I.V., read-out: Cmax) was 58200 ng/mL and the Tmax ([1]; SD, plasma, po, 10 mg/kg P.O.) was 3 h. It also gave a half-life ([1]; SD, plasma, po, 10 mg/kg P.O.) of 5.43 h, an AUC(0-t) ([1]; SD, plasma, po, 10 mg/kg P.O.) of 176 µg·h/mL and a Cmax ([1]; SD, plasma, po, 10 mg/kg P.O., read-out: Cmax) of 12300 ng/mL. For the same compound, the t1/2 ([1]; 10 mg/kg I.V.) was 5.1 h, the CL ([1]; 10 mg/kg P.O.) was 0.967 mL/min/kg and the Vss ([1]; 10 mg/kg P.O.) was 0.446 L/kg. It also gave a Cmax ([1]; 10 mg/kg P.O.) of 12280 ng/mL, a t1/2 ([1]; 10 mg/kg P.O.) of 5.4 h and a remaining binding at 10 µM (PIM1) of 26%. For the same compound, the remaining binding at 10 µM (DYRK1B) was 41%, the remaining binding at 10 µM (STK39) was 100% and the remaining binding at 10 µM (SGK3) was 46%. For the same compound, the embryo dorsalization (zebrafish embryos) was “led to embryo dorsalization in a dose-dependent manner”, the remaining binding at 10 µM (PKAC-beta) was 88% and the remaining binding at 10 µM (DCAMKL2) was 100%. It also gave a remaining binding at 10 µM (CSNK1D) of 44%, a remaining binding at 10 µM (SgK110) of 100% and a remaining binding at 10 µM (KIT) of 0%. For the same compound, the remaining binding at 10 µM (PKMYT1) was 100%, the remaining binding at 10 µM (MAP3K2) was 100% and the remaining binding at 10 µM (EPHA1) was 9.2%. The remaining binding at 10 µM (MET(M1250T)) was 2.2%, the remaining binding at 10 µM [2] was 14% and the remaining binding at 10 µM (CAMK2G) was 66%. For the same compound, the remaining binding at 10 µM (STK16) was 36%, the remaining binding at 10 µM [3] was 13% and the remaining binding at 10 µM [4] was 10%. It also gave a remaining binding at 10 µM (ERK4) of 98%, a remaining binding at 10 µM (PAK6) of 90% and a remaining binding at 10 µM (PAK3) of 6.4%. The remaining binding at 10 µM (LOK) was 0%, the remaining binding at 10 µM (EGFR(G719C)) was 37% and the remaining binding at 10 µM (PAK1) was 68%. The Kd (FLT3-D835H) was 0.00074 µM.
